# Test results: patent publication EP0014981A2, “Medicaments and pharmaceutical compositions with cytostatic activity” (Henkel Kommanditgesellschaft auf Aktien, priority 1979, dated 1980)
# Experiments:
# Format in all cases: in vivo, Mäuse
# [1] = system: Tumorart P 388 (Leucämie); assay: Leukaemia P 388 in mice, NCI protocol 1 200, survival; conditions: for Heilung: % of animals
# Protocol: (§1) Die nachfolgenden Beispiele wurden durchgeführt nach Testvorschriften des National Cancer Institute Bethesda, Maryland 200014, veröffentlicht in "Cancer Chemotherapy Reports" Part. 3, Sept. '72, Vol. 3, Nr. 2. Als Wirksubstanz wurde verwendet α-Triglycidylisocyanurat (F 106° C) sowie β-Triglycidylisocyanurat (F 158 °C), beide mit 16,1 % Epoxidsauerstoffgehalt (Herstellung siehe US-PS 3,337,509).
# (§2) Alle wäßrigen 1 %igen Injektionslösungen wurden unmittelbar vor der Applikation frisch hergestellt.
# Bei Mäusen wurde gemäß Protokoll 1 200 (Seite 9 l.c.) die Tumorart P 388 (Leucämie) i.p. mit 10^6 Zellen/Maus ge- setzt. Die unbehandelten Tiere hatten eine mittlere Überlebensdauer von 10,5 Tagen.
# Bei Mäusen wurde gemäß Protokoll 1 200 (Seite 9 1.c.) die Tumorart P 388 Leucämie i.p. mit 10^6 Zellen/Maus gesetzt. Die unbehandelten Tiere hatten eine mittlere überlebensdauer von 10 Tagen.
# [2] = system: gegenüber Cyclophosphamid (NSC 26271) resistente Leukämieform von P 388; assay: Cyclophosphamide-resistant P 388 leukaemia in mice, survival; conditions: 10 mice
# Protocol: as §1, §2
# Eine gegenüber Cyclophosphamid (NSC 26271) resistente Leukämieform von P 388 wurde mit α-T3I und Cyclophosphamid behandelt. Jede Gruppe bestand aus 10 Mäusen.
# Leukämie L 1210 = assay: Leukaemia L 1210 in mice, NCI protocol 1.100, survival; conditions: for Überlebende / ganze Gruppe, leukäm. M. / Überlebende / ganze Gruppe, Kontrollgruppe: after 30 days; for Überlebende / ganze Gruppe, Kontrollgruppe: control group
# Protocol: as §1, §2
# Bei Mäusen wurde gemäß Protokoll 1.100 (Seite 7 1.c.) Leukämie L 1210 durch i.p. Verabreichung von 0,1 ml verdünnter Erregerlösung entsprechend 10^5 Zellen erzeugt. Bei der Kontrollgruppe betrug die mittlere Überlebensdauer 8 Tage (m.s.t.).
# B) Der Einfluß der Behandlungsplanung auf die therapeutische Wirksamkeit von α-TGI bei Tumor L 1210 nach 30 Tagen ist der nachfolgenden Tabelle I zu entnehmen.
# Melanom B16 = assay: Melanoma B 16 in mice, NCI instruction 1.300, survival; conditions: days 1 to 9
# Protocol: as §1, §2
# bei Mäusen wurde gemäß Anweisung 1.300 das 1/10 Homogenzt teranom B 16 jeweils 0,5 ml pro Maus i.p, verabfolgt gergl. S. 11 1,c.).
# Die Kontrollgruppe hatte eine mittlere Überlebenszeit von 15,3 Tagen (m.s.t.).
# Behandelte Gruppen erhielten vom 1. bis 9. Tag verschiedene Mengen α-TGI i.p. In der nachfolgenden Tabelle II ist die mittlere überlebensdauer und T/C in Ahhängigkeit der p.die gegebenen Menge Wirkstoff wiedergegeben.
# Lungencarcinom (Lewis) = assay: Lewis lung carcinoma in mice, NCI protocol 1.400, inhibition of metastases; conditions: days 1 to 11, after 23 days
# Protocol: as §1, §2
# Gemäß Protokoll 1.400 (Seite 13 1.c.) wurden bei Mäusen Zellen, s.c. eines 1 mm^3 Stücks Lungencarcinom (Lewis) implantiert. Dann erfolgte vom 1. bis 11. Tag i.p. Verabfolgung von 40 mg/kg p.die an α-TGI bzw. 90 mg/kg p.die an β -TGI.
# Ependymoblastom = assay: Intracerebrally implanted ependymoblastoma in mice, survival; conditions: 40 mg/kg p.die, 9 days
# Protocol: as §1, §2
# Bei einer Testgruppe von Mäusen wurde durch intracerebra1 mm^3 eines Gewebes von Ependymoblastom implantiert. Die mittlere Überlebensdauer bei der Kontrollgruppe be- trug 19,3 Tage.
# Sarcom 180 = assay: Sarcoma 180 i.p. in mice, survival; conditions: 30 mg/kg i.p., days 1 to 9
# Protocol: as §1, §2
# Durch i.p-Verabfolgung von 10^6 Zellen pro Maus wurde das Sarcom 180 gesetzt. Die unbehandelte Kontrollgrüppe hatte eine mittlere überlebenszeit von 20, 2 Tagen.
# Coloncarcinom 38 = assay: Colon carcinoma 38 s.c. in mice, tumour weight; conditions: after 20 days (control 512 mg/Maus)
# Protocol: as §1, §2
# A)Gruppen von 10 Mäusen wurde etwa 1 mm^3 Coloncarcinom 38 s.c. implantiert. Das mittlere Turaorgetuicht betrug bei der unbehandelten Kontrollgruppe nach 20 Tagen: 512mg/Maus.
# Coloncarcinom 26 = assay: Colon carcinoma 26 i.p. in mice, survival; conditions: for Mäuse lebend, 60 Tage / alle Mäuse lebend (day up to which): groups of 10 mice
# Protocol: as §1, §2
# 8) Durch i.p. Inplantation (1 mm^3 Coloncarcinom 26) wurde bei Gruppen von jeweils 10 Mäusen ein Ca gesetzt Die Behandlung erfolgte durch i.p.-Verabfolgung von α-TGI. In der nachfolgenden Tabelle III sind die Ergebnisse in Abhängigkeit der jeweils am 1., 5. und 9. Tag applizierten Menge wiedergegeben.
# [3] = Tolerated maximum daily dose in mice, i.p. aqueous solutions; conditions: clear toxic effects only at higher doses
# Protocol: Im Tierexperiment hat sich die Verwendung von frisch hergestellten, wäßrigen Lösungen, die i.p. gegeben werden, als zweckmäßig erwiesen. Von α- beziehungsweise β-Triglycidylisocyanurat kann bei Mäusen die Maximaldosis p.die 100 mg/kg Maus betragen. Deutliche toxische Wirkungen treten erst bei höherer Dosierung auf. Als optimale Dosierung hat sich in vielen Fällen eine Gabe von 30 mg bis 60 mg/kg Maus während einer Applikationsdauer von 1 bis 9 Tagen bewährt.
# [4] = 50 mg/kg p.die i.p., days 1 to 9
# [5] = 50 mg/kg p.die i.p., days 1 to 9, group of 6 mice
# [6] = 100 mg/kg p.die i.p., days 1 to 9
compound,measurement,setting,value
"O=c1n(CC2CO2)c(=O)n(CC2CO2)c(=O)n1CC1CO1 (single isomer, unassigned) [α-TGI, α-Triglycidylisocyanurat]",T/C,"[1]; 25 mg/kg p.die, 9 doses",196%
same,T/C,"[1]; 50 mg/kg p.die i.p., 9 days",200%
same,Heilung,"[1]; 50 mg/kg p.die, 9 days",17%
same,"T/C, Verlängerungsrate (mittlere Lebenserwartung gegenüber der Kontrollgruppe)","[1]; 100 mg/kg p.die i.p., 9 days",285%
same,behandelte Mäuse lebten länger als 40 Tage (als geheilt anzusehen),"[1]; 100 mg/kg p.die i.p., 9 days, fraction of treated mice",Die Hälfte
same,Mäuse überlebten 60 Tage,"[2]; 40 mg/kg, days 1 to 9",alle
same,T/C,"[2]; 40 mg/kg, days 1 to 9",478%
same,"Überlebende / ganze Gruppe, leukäm. M.",Leukämie L 1210; 40 mg 9x i.p. (1.bis 9.Tag),8/10
same,"Überlebende / ganze Gruppe, Kontrollgruppe",Leukämie L 1210; 40 mg 9x i.p. (1.bis 9.Tag),8/8
same,"Überlebende / ganze Gruppe, leukäm. M.",Leukämie L 1210; 50 mg 5x i.p. (1.bis 5.Tag),5/10
same,"Überlebende / ganze Gruppe, Kontrollgruppe",Leukämie L 1210; 50 mg 5x i.p. (1.bis 5.Tag),7/8
same,T/C,Leukämie L 1210; [4],297%
same,mittlere Überlebensdauer,Leukämie L 1210; [4],"23,8 Tage"
same,30 Tage erreichten,Leukämie L 1210; [5],3 Mäuse
same,Heilungsrate,Leukämie L 1210; [5],~50%
same,T/C,Melanom B16; 25 mg p.die i.p.,227%
same,m. s. t. (Tage),Melanom B16; 25 mg p.die i.p.,"36,0 Tage"
same,T/C,Melanom B16; 50 mg p.die i.p.,234%
same,m. s. t. (Tage),Melanom B16; 50 mg p.die i.p.,"37,0 Tage"
same,T/C,"Melanom B16; 12,5 mg p.die i.p.",188%
same,m. s. t. (Tage),"Melanom B16; 12,5 mg p.die i.p.","29,8 Tage"
same,Hemmung an Metastasen gegenüber der Kontrollgruppe,Lungencarcinom (Lewis); 40 mg/kg p.die i.p.,92%
same,T/C,Ependymoblastom,165%
same,T/C,Sarcom 180,183%
same,mittleres Tumorgewicht,"Coloncarcinom 38; 50 mg/kg p.die on days 2, 9 and 16",183 mg pro Maus
same,mittleres Tumorgewicht,Coloncarcinom 38; 50 mg/kg p.die on days 2 and 9,153 mg pro Maus
same,"Mäuse lebend, 60 Tage","Coloncarcinom 26; 25 mg i.p. on days 1, 5 and 9",6 von 10
same,alle Mäuse lebend (day up to which),"Coloncarcinom 26; 25 mg i.p. on days 1, 5 and 9",25 Tage
same,"Mäuse lebend, 60 Tage","Coloncarcinom 26; 50 mg i.p. on days 1, 5 and 9",60 Tage noch 10 Mäuse lebend
same,"Mäuse lebend, 60 Tage","Coloncarcinom 26; 100 mg i.p. on days 1, 5 and 9",4 Mäuse
same,alle Mäuse lebend (day up to which),"Coloncarcinom 26; 100 mg i.p. on days 1, 5 and 9",49 Tage
same,MTD,"[3]; mouse, in vivo, ip, read-out: Maximaldosis p.die",100 mg/kg/day
CC1(Cn2c(=O)n(CC3(C)CO3)c(=O)n(CC3(C)CO3)c2=O)CO1 (stereo not shown) [Tri-(2-methylglycidyl)-isocyanurat],T/C,"[1]; 50 mg/kg p.die i.p., 9 days",150%
same,"T/C, Verlängerungsrate (mittlere Lebenserwartung gegenüber der Kontrollgruppe)","[1]; 100 mg/kg p.die i.p., 9 days",170%
"O=P1(N(CCCl)CCCl)NCCCO1 (stereo not shown) [Cyclophosphamid, reference compound]",T/C,[2]; 180 mg/kg,150%
same,Überlebenszeit der behandelten Mäuse,[2]; 180 mg/kg,< 30 Tage
"O=c1[nH]cc(F)c(=O)[nH]1 [Fluoruracil, reference compound]",mittlere überlebensdauer,"Coloncarcinom 26; positive comparison, dose not given, 10 mice",55 Tage
same,Mäuse lebend am 60. Tag,"Coloncarcinom 26; positive comparison, dose not given, of 10 mice",2 Mäuse
"O=c1n(CC2CO2)c(=O)n(CC2CO2)c(=O)n1CC1CO1 (single isomer, unassigned) [β-TGI, β-Triglycidylisocyanurat]",T/C,"[1]; 25 mg/kg p.die, 9 doses",174%
same,T/C,"[1]; 50 mg/kg p.die i.p., 9 days",179%
same,Heilung,"[1]; 50 mg/kg p.die, 9 days",17%
same,"T/C, Verlängerungsrate (mittlere Lebenserwartung gegenüber der Kontrollgruppe)","[1]; 100 mg/kg p.die i.p., 9 days",228%
same,Heilung,"[1]; 100 mg/kg p.die, 9 days",17%
same,T/C,Leukämie L 1210; [4],203%
same,mittlere Überlebensdauer,Leukämie L 1210; [4],"16,3 Tage"
same,T/C,Leukämie L 1210; [6],315%
same,mittlere Überlebensdauer,Leukämie L 1210; [6],"25,2 Tage"
same,Hemmung an Metastasen gegenüber der Kontrollgruppe,Lungencarcinom (Lewis); 90 mg/kg p.die i.p.,87%
same,Maximaldosis p.die,[3],100 mg/kg Maus
